Test results published in US12448399B2, “Cereblon-based KRAS degrading PROTACs and uses related thereto” (Arvinas Operations, Inc., priority 2023, dated 2025).

Target: T1, KRas-G12D (Homo sapiens, UniProt P01116, G12D)
T1 construct: insert the HiBiT tag onto the N-terminus of one or more of the endogenous KRas alleles; host or cells: AsPC-1 HiBiT-KRasG12D knock-in clone (one tagged allele, two untagged KRasG12D alleles)
Assay: HiBiT Degradation Assay (G12D), AsPC-1 HiBiT-KRasG12D cells, 24 hr
Assay type: cell-based
Conditions: for Dmax: ASPC1, AsPC-1 cells, maximum degradation observed; for DC50: AsPC-1 cells
Method in brief: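 Degradation was read after 24 hr compound exposure (0.5% DMSO, 37° C) by Nano-Glo HiBiT lytic luminescence in AsPC-1 cells carrying a HiBiT tag on one of three KRasG12D alleles. Signal relative to DMSO gave DC50 and Dmax by 4-parameter fit; alamar blue fluorescence monitored cytotoxicity.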

T1 sequence (P01116 1-188 isoform P01116-2 G12D): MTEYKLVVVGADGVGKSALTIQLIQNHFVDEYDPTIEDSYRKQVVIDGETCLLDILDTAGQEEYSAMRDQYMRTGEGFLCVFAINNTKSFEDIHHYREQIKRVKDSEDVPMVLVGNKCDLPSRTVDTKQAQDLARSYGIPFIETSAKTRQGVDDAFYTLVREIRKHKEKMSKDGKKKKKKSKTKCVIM

Compound | Dmax [%] | DC50 [µM]
CCc1c(F)ccc2cc(O)cc(-c3ncc4c(N5CC6CCC(C5)N6)nc(OC[C@@H]5C[C@@H](OC6CCN(CC7CCN(c8ccc9c(c8Cl)CN(C8CCC(=O)NC8=O)C9=O)CC7)CC6)CN5C)nc4c3F)c12 (stereo partly drawn) [Compound 177, 3-(4-chloro-5-{4-[(4-{[(3R,5S)-5-{[(4-{3,8-diazabicyclo[3.2.1]octan-3-yl}-7-(8-ethyl-7-fluoro-3-hydroxynaphthalen-1-yl)-8-fluoropyrido[4,3-d]pyrimidin-2-yl)oxy]methyl}-1-methylpyrrolidin-3-yl]oxy}piperidin-1-yl)methyl]piperidin-1-yl}-1-oxo-2,3-dihydro-1H-isoindol-2-yl)piperidine-2,6-dione] | > 70 | < 5.1
CCc1c(F)ccc2cc(O)cc(-c3ncc4c(N5CC6CCC(C5)N6)nc(OC[C@@H]5C[C@@H](OC6CCN(CC7CCN(c8ccc9c(c8F)CN(C8CCC(=O)NC8=O)C9=O)CC7)CC6)CN5C)nc4c3F)c12 (stereo partly drawn) [Compound 178, 3-(5-{4-[(4-{[(3R,5S)-5-{[(4-{3,8-diazabicyclo[3.2.1]octan-3-yl}-7-(8-ethyl-7-fluoro-3-hydroxynaphthalen-1-yl)-8-fluoropyrido[4,3-d]pyrimidin-2-yl)oxy]methyl}-1-methylpyrrolidin-3-yl]oxy}piperidin-1-yl)methyl]piperidin-1-yl}-4-fluoro-1-oxo-2,3-dihydro-1H-isoindol-2-yl)piperidine-2,6-dione] | > 70 | < 5.1
CCc1c(F)ccc2cc(O)cc(-c3ncc4c(N5CC6CCC(C5)N6)nc(OCCN5CCC(C)(CC6CCN(CC7CCN(c8ccc9c(c8)n(C)c(=O)n9C8CCC(=O)NC8=O)CC7)CC6)CC5)nc4c3F)c12 (stereo not shown) [Compound 179, 3-{5-[4-({4-[(1-{2-[(4-{3,8-diazabicyclo[3.2.1]octan-3-yl}-7-(8-ethyl-7-fluoro-3-hydroxynaphthalen-1-yl)-8-fluoropyrido[4,3-d]pyrimidin-2-yl)oxy]ethyl}-4-methylpiperidin-4-yl)methyl]piperidin-1-yl}methyl)piperidin-1-yl]-3-methyl-2-oxo-2,3-dihydro-1H-1,3-benzodiazol-1-yl}piperidine-2,6-dione] | > 70 | < 5.1
CCc1c(F)ccc2cc(O)cc(-c3ncc4c(N5CC6CCC(C5)N6)nc(OCCN5CCC(C)(CN6CCN(CC7CCN(c8ccc9c(c8)n(C)c(=O)n9C8CCC(=O)NC8=O)CC7)CC6)CC5)nc4c3F)c12 (stereo not shown) [Compound 180, 3-{5-[4-({4-[(1-{2-[(4-{3,8-diazabicyclo[3.2.1]octan-3-yl}-7-(8-ethyl-7-fluoro-3-hydroxynaphthalen-1-yl)-8-fluoropyrido[4,3-d]pyrimidin-2-yl)oxy]ethyl}-4-methylpiperidin-4-yl)methyl]piperazin-1-yl}methyl)piperidin-1-yl]-3-methyl-2-oxo-2,3-dihydro-1H-1,3-benzodiazol-1-yl}piperidine-2,6-dione] | > 70 | < 5.1
CCc1c(F)ccc2cc(O)cc(-c3ncc4c(N5CC6CCC(C5)N6)nc(OCCN5CCC(F)(CN6CCN(CC7CCN(c8ccc9c(c8)n(C)c(=O)n9C8CCC(=O)NC8=O)CC7)CC6)CC5)nc4c3F)c12 (stereo not shown) [Compound 181, 3-{5-[4-({4-[(1-{2-[(4-{3,8-diazabicyclo[3.2.1]octan-3-yl}-7-(8-ethyl-7-fluoro-3-hydroxynaphthalen-1-yl)-8-fluoropyrido[4,3-d]pyrimidin-2-yl)oxy]ethyl}-4-fluoropiperidin-4-yl)methyl]piperazin-1-yl}methyl)piperidin-1-yl]-3-methyl-2-oxo-2,3-dihydro-1H-1,3-benzodiazol-1-yl}piperidine-2,6-dione] | > 70 | < 5.1
CCc1c(F)ccc2cc(O)cc(-c3ncc4c(N5CC6CCC(C5)N6)nc(OCCN5CCC(F)(CC6CCN(CC7CCN(c8ccc9c(c8)n(C)c(=O)n9C8CCC(=O)NC8=O)CC7)CC6)CC5)nc4c3F)c12 (stereo not shown) [Compound 182, 3-{5-[4-({4-[(1-{2-[(4-{3,8-diazabicyclo[3.2.1]octan-3-yl}-7-(8-ethyl-7-fluoro-3-hydroxynaphthalen-1-yl)-8-fluoropyrido[4,3-d]pyrimidin-2-yl)oxy]ethyl}-4-fluoropiperidin-4-yl)methyl]piperidin-1-yl}methyl)piperidin-1-yl]-3-methyl-2-oxo-2,3-dihydro-1H-1,3-benzodiazol-1-yl}piperidine-2,6-dione] | > 70 | < 5.1
C#Cc1c(F)ccc2cc(O)cc(-c3ncc4c(N5CC6CCC(C5)N6)nc(OCCN5CCC(F)(CN6CCC(CC7CCN(c8ccc9c(c8)n(C)c(=O)n9C8CCC(=O)NC8=O)CC7)CC6)CC5)nc4c3F)c12 (stereo not shown) [Compound 183, 3-{5-[4-({1-[(1-{2-[(4-{3,8-diazabicyclo[3.2.1]octan-3-yl}-7-(8-ethynyl-7-fluoro-3-hydroxynaphthalen-1-yl)-8-fluoropyrido[4,3-d]pyrimidin-2-yl)oxy]ethyl}-4-fluoropiperidin-4-yl)methyl]piperidin-4-yl}methyl)piperidin-1-yl]-3-methyl-2-oxo-2,3-dihydro-1H-1,3-benzodiazol-1-yl}piperidine-2,6-dione] | > 70 | < 5.1
C#Cc1c(F)ccc2cc(O)cc(-c3ncc4c(N5CC6CCC(C5)N6)nc(OC[C@@H](C)N5CCC(CC6CCN(CC7CCN(c8ccc9c(c8)n(C(C)C)c(=O)n9C8CCC(=O)NC8=O)CC7)CC6)CC5)nc4c3F)c12 (stereo partly drawn) [Compound 184, 3-[5-(4-{[4-({1-[(2R)-1-[(4-{3,8-diazabicyclo[3.2.1]octan-3-yl}-7-(8-ethynyl-7-fluoro-3-hydroxynaphthalen-1-yl)-8-fluoropyrido[4,3-d]pyrimidin-2-yl)oxy]propan-2-yl]piperidin-4-yl}methyl)piperidin-1-yl]methyl}piperidin-1-yl)-2-oxo-3-(propan-2-yl)-2,3-dihydro-1H-1,3-benzodiazol-1-yl]piperidine-2,6-dione] | > 70 | < 5.1
C#Cc1c(F)ccc2cc(O)cc(-c3ncc4c(N5CC6CCC(C5)N6)nc(OC[C@@H](C)N5CCC(CC6CCN(CC7CCN(c8ccc9c(c8F)CN(C8CCC(=O)NC8=O)C9=O)CC7)CC6)CC5)nc4c3F)c12 (stereo partly drawn) [Compound 185, 3-[5-(4-{[4-({1-[(2R)-1-[(4-{3,8-diazabicyclo[3.2.1]octan-3-yl}-7-(8-ethynyl-7-fluoro-3-hydroxynaphthalen-1-yl)-8-fluoropyrido[4,3-d]pyrimidin-2-yl)oxy]propan-2-yl]piperidin-4-yl}methyl)piperidin-1-yl]methyl}piperidin-1-yl)-4-fluoro-1-oxo-2,3-dihydro-1H-isoindol-2-yl]piperidine-2,6-dione] | > 70 | < 5.1
C#Cc1c(F)ccc2cc(O)cc(-c3ncc4c(N5CC6CCC(C5)N6)nc(OCC5(CN6CCN(CC7CCN(c8ccc9c(c8Cl)CN(C8CCC(=O)NC8=O)C9=O)CC7)CC6)CC5)nc4c3F)c12 (stereo not shown) [Compound 186, 3-{4-chloro-5-[4-({4-[(1-{[(4-{3,8-diazabicyclo[3.2.1]octan-3-yl}-7-(8-ethynyl-7-fluoro-3-hydroxynaphthalen-1-yl)-8-fluoropyrido[4,3-d]pyrimidin-2-yl)oxy]methyl}cyclopropyl)methyl]piperazin-1-yl}methyl)piperidin-1-yl]-1-oxo-2,3-dihydro-1H-isoindol-2-yl}piperidine-2,6-dione] | > 70 | < 5.1
C#Cc1c(F)ccc2cc(O)cc(-c3ncc4c(N5CC6CCC(C5)N6)nc(OCC5(CN6CCC(CN7CCN(c8ccc9c(c8Cl)CN(C8CCC(=O)NC8=O)C9=O)CC7)CC6)CC5)nc4c3F)c12 (stereo not shown) [Compound 187, 3-{4-chloro-5-[4-({1-[(1-{[(4-{3,8-diazabicyclo[3.2.1]octan-3-yl}-7-(8-ethynyl-7-fluoro-3-hydroxynaphthalen-1-yl)-8-fluoropyrido[4,3-d]pyrimidin-2-yl)oxy]methyl}cyclopropyl)methyl]piperidin-4-yl}methyl)piperazin-1-yl]-1-oxo-2,3-dihydro-1H-isoindol-2-yl}piperidine-2,6-dione] | > 70 | < 5.1
C#Cc1c(F)ccc2cc(O)cc(-c3ncc4c(N5CC6CCC(C5)N6)nc(OCC5(CN6CCN(CC7CCN(c8ccc9c(c8)n(C)c(=O)n9C8CCC(=O)NC8=O)CC7)CC6)CC5)nc4c3F)c12 (stereo not shown) [Compound 188, 3-{5-[4-({4-[(1-{[(4-{3,8-diazabicyclo[3.2.1]octan-3-yl}-7-(8-ethynyl-7-fluoro-3-hydroxynaphthalen-1-yl)-8-fluoropyrido[4,3-d]pyrimidin-2-yl)oxy]methyl}cyclopropyl)methyl]piperazin-1-yl}methyl)piperidin-1-yl]-3-methyl-2-oxo-2,3-dihydro-1H-1,3-benzodiazol-1-yl}piperidine-2,6-dione] | > 70 | < 5.1
C#Cc1c(F)ccc2cc(O)cc(-c3ncc4c(N5CC6CCC(C5)N6)nc(OCC5(CN6CCC(CN7CCN(c8ccc9c(c8)n(C)c(=O)n9C8CCC(=O)NC8=O)CC7)CC6)CC5)nc4c3F)c12 (stereo not shown) [Compound 189, 3-{5-[4-({1-[(1-{[(4-{3,8-diazabicyclo[3.2.1]octan-3-yl}-7-(8-ethynyl-7-fluoro-3-hydroxynaphthalen-1-yl)-8-fluoropyrido[4,3-d]pyrimidin-2-yl)oxy]methyl}cyclopropyl)methyl]piperidin-4-yl}methyl)piperazin-1-yl]-3-methyl-2-oxo-2,3-dihydro-1H-1,3-benzodiazol-1-yl}piperidine-2,6-dione] | > 70 | < 5.1
C#Cc1c(F)ccc2cc(O)cc(-c3ncc4c(N5CC6CCC(C5)N6)nc(OCC5(CN6CCC(CC7CCN(c8ccc9c(c8Cl)CN(C8CCC(=O)NC8=O)C9=O)CC7)CC6)CC5)nc4c3F)c12 (stereo not shown) [Compound 190, 3-{4-chloro-5-[4-({1-[(1-{[(4-{3,8-diazabicyclo[3.2.1]octan-3-yl}-7-(8-ethynyl-7-fluoro-3-hydroxynaphthalen-1-yl)-8-fluoropyrido[4,3-d]pyrimidin-2-yl)oxy]methyl}cyclopropyl)methyl]piperidin-4-yl}methyl)piperidin-1-yl]-1-oxo-2,3-dihydro-1H-isoindol-2-yl}piperidine-2,6-dione] | > 70 | < 5.1
